From patent US9006487B2, “Amine-containing lipids and uses thereof” (Massachusetts Institute of Technology, priority 2005, dated 2015)

System: cos-7 cells
Assay: DNA transfection: luciferase expression relative to Lipofectamine 2000
Type: cell-based
Settings: for Luciferase expression as a percentage of that achieved using Lipofectamine 2000: 300 ng Luciferase DNA per well, luciferase assay after 48 hours; for luciferase expression (second part of table, values relative to LIPO2000): 300 ng of DNA per well
Summary of the method: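 Lipid/DNA complexes, 300 ng luciferase DNA per well at 2.5-25 w/w lipid:DNA, were formed in sodium acetate/Optimem and added to overnight-seeded cos-7 cells. Luciferase was measured by Bright-Glo luminescence after 48 hours and quantified against an enzyme standard curve. Values are expressed as % of Lipofectamine 2000 at 2.5 w/w.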

| SMILES | Luciferase expression as a percentage of that achieved using Lipofectamine 2000 (lipid/DNA 2.5 w/w) [%] | Luciferase expression as a percentage of that achieved using Lipofectamine 2000 (lipid/DNA 5 w/w) [%] | Luciferase expression as a percentage of that achieved using Lipofectamine 2000 (lipid/DNA 10 w/w) [%] | Luciferase expression as a percentage of that achieved using Lipofectamine 2000 (lipid/DNA 15 w/w) [%] | Luciferase expression as a percentage of that achieved using Lipofectamine 2000 (lipid/DNA 20 w/w) [%] | Luciferase expression as a percentage of that achieved using Lipofectamine 2000 (lipid/DNA 25 w/w) [%] | luciferase expression (second part of table, values relative to LIPO2000) (lipid/DNA 2.5 w/w) | luciferase expression (second part of table, values relative to LIPO2000) (lipid/DNA 5 w/w) | luciferase expression (second part of table, values relative to LIPO2000) (lipid/DNA 10 w/w) | luciferase expression (second part of table, values relative to LIPO2000) (lipid/DNA 15 w/w) | luciferase expression (second part of table, values relative to LIPO2000) (lipid/DNA 20 w/w) | luciferase expression (second part of table, values relative to LIPO2000) (lipid/DNA 25 w/w) |
| --- | --- | --- | --- | --- | --- | --- | --- | --- | --- | --- | --- | --- |
| CCCCCCCCCCCCOC(=O)CCN(CCO)CCN(CCO)CCC(=O)OCCCCCCCCCCCC [LD103] | 11.6 | 17.2 | 24.4 | 27.1 | 12.3 | 6.6 |  |  |  |  |  |  |
| CCCCCCCCCCCCCCCCCCOC(=O)CCN(CCC(=O)OCCCCCCCCCCCCCCCCCC)C[C@@H](C)O [LH21] | 0.0 | 0.0 | 0.0 | 0.0 | 0.0 | 0.0 |  |  |  |  |  |  |
| CCCCCCCCCCCCCCCCCCOC(=O)CCN(CCCCO)CCC(=O)OCCCCCCCCCCCCCCCCCC [LH28] |  |  | 0.2 | 0.2 |  |  |  |  |  |  |  |  |
| CCCCCCCCCCCCCCOC(=O)CCN(CCC(=O)OCCCCCCCCCCCCCC)CCN(CCC(=O)OCCCCCCCCCCCCCC)CCC(=O)OCCCCCCCCCCCCCC [LF99] | 32.2 | 49.8 | 26.5 | 10.7 | 6.0 | 6.2 | 32.2 | 49.8 | 26.5 | 10.7 | 6.0 | 6.2 |
| CCCCCCCCCCCCNC(=O)CCN(CCC(=O)NCCCCCCCCCCCC)CCN(CCO)CCO [ND86] | 0.5 | 0.2 | 0.0 | 0.0 | 0.0 | 0.0 |  |  |  |  |  |  |
| CCCCCCCCCCCCCOC(=O)CCN(CCC(=O)OCCCCCCCCCCCCC)CCN1CCOCC1 [LE90] | 0.5 | 0.3 | 0.4 | 0.4 | 0.4 | 0.4 |  |  |  |  |  |  |
| CCCCCCCCCCCCCCOC(=O)CCN(CC)CCN(CC)CCC(=O)OCCCCCCCCCCCCCC [LF61] | 0.1 | 0.1 | 0.1 | 0.1 | 0.1 | 0.1 |  |  |  |  |  |  |
